Experimental data taken from PubChem BioAssay (NCI).
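These data come from cells grown in 96-well plates and exposed to compound for 48 hours at five concentrations. Definition used: TGI = concentration required for complete inhibition of growth.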

Key:
Assay in all cases: inhibition of tumour cell growth, NCI panel, 48 h
[1] = system: OVCAR-8 ovarian
[2] = system: SF-539 CNS
[3] = system: DU-145 prostate
[4] = system: SK-MEL-5 melanoma
[5] = system: SN12C renal
[6] = system: M14 melanoma
[7] = system: NCI-H460 lung
[8] = system: ACHN renal
[9] = system: MDA-N
[10] = system: PC-3 prostate
[11] = system: KM12 colon
[12] = system: SK-MEL-28 melanoma
[13] = system: EKVX NSCLC
[14] = system: COLO 205 colon
[15] = system: HL-60(TB) leukemia
[16] = system: UO-31 renal
[17] = system: MDA-MB-435
[18] = system: RXF 393 renal
[19] = system: NCI-H23 lung
[20] = system: SR leukemia

SMILES	TGI [1] [µM]	TGI [2] [µM]	TGI [3] [µM]	TGI [4] [µM]	TGI [5] [µM]	TGI [6] [µM]	TGI [7] [µM]	TGI [8] [µM]	TGI [9] [µM]	TGI [10] [µM]	TGI [11] [µM]	TGI [12] [µM]	TGI [13] [µM]	TGI [14] [µM]	TGI [15] [µM]	TGI [16] [µM]	TGI [17] [µM]	TGI [18] [µM]	TGI [19] [µM]	TGI [20] [µM]
O=C(O)CN1CCN2CCCCCCCCN(CC1)CCN(CC(=O)O)CC2	> 100	> 100	> 100	> 100	> 100	> 100	> 100	> 100	> 100	> 100	> 100	> 100	> 100	> 100	30.7	> 100	> 100			
OC(c1cc2ccccc2[nH]1)C(O)(c1cc2ccccc2[nH]1)c1cc2ccccc2[nH]1 (stereo not given)	75	88.7		39.8	11.4		51.3	50.1			> 245	55.1	60.9	8.85	127			29.1	21	> 245
CC12CP(=O)(O)CC1C2(Cl)Cl (stereo not given)	> 100	> 100	> 100	> 100	> 100	> 100	> 100	> 100		> 100	> 100	> 100	> 100	> 100	> 100	> 100	> 100	> 100	> 100	> 100
CC1=C(C(=O)O)N2C(=O)[C@@H](NC(=O)C(c3ccccc3)N3CSC(=S)N(C(C)C)C3)C2SC1 (stereo not given in full)	> 100	> 100		> 100	> 100	> 100	> 100	> 100			> 100	> 100	> 100	> 100	> 100	> 100			> 100	
CC1=C(O)C(=O)C2C(=O)C1C(C)C2c1ccccc1 (stereo not given)	> 100	> 100		> 100		> 100		> 100			> 100	> 100	> 100	> 100		> 100		> 100	> 100	> 100
CSc1c(C(N)=S)c(N)nn1-c1ccccc1	> 100	> 100	> 100	> 100	> 100	> 100	> 100			> 100	> 100	> 100	> 100	> 100	> 100	> 100	> 100	> 100	> 100	> 100
CC(C)(Oc1ccc2c(=O)cc(-c3ccc(Cl)cc3)oc2c1)C(=O)Nc1c(Cl)cccc1Cl	> 100	> 100		> 100		> 100	> 100				> 100	> 100	> 100		> 100	> 100			> 100	> 100
C=C(C)[C@@]12C[C@H](OC(=O)[C@H](O)[C@@H](NC(=O)c3ccccc3)c3ccccc3)C(C)=C1[C@@H](OC(C)=O)C(=O)[C@@]1(C)C([C@@H]2OC(=O)c2cc(F)cc(F)c2)C2(OC(C)=O)CO[C@@H]2C[C@@H]1O (stereo not given in full)	> 4.03	0.259	> 5.16	> 10	> 4.51	> 10	9.22	> 9.36		> 10	> 3.26	> 10	> 10	0.392	0.224	> 10	0.0818	0.582	3.14	> 3.64
Brc1ccc2nc(-c3cccs3)nc(N3CCN(c4ccccc4)CC3)c2c1	> 100	> 100	> 100	> 100	> 100	> 100	> 100	> 100		> 100	> 100	> 100	> 100	> 100	> 100	> 100	> 100		> 100	> 100
O=c1c2ccccc2ncn1COCc1ccccc1	> 100	> 100	> 100	> 100		> 100		> 100			> 100	> 100	> 100	> 100	> 100	> 100	> 100	> 100		> 100
N=C1c2ccccc2C(=O)c2c(NCCNCCO)ccc(O)c21	> 76.2	16.3		19.3	31.7	24.8	15.1	57			33.1	23.2	46.9	16.9	27.6	32.7		18	25.7	5.32
CS(=O)(=O)c1ccc(C(=O)O[C@@H]2C(=O)N3CC[C@H]4OC(O)[C@@H]2[C@H]43)cc1 (stereo not given in full)	> 100	> 100	> 100	> 100		> 100	> 100	> 100		> 100	> 100	> 100	> 100	> 100		> 100	> 100	> 100	> 100	> 100
CCCNC(=O)Cn1c2c(c3ccccc31)CCCC2	> 100	> 100		> 100	> 100	> 100	> 100	> 100	> 100	> 100		> 100	> 100	> 100	> 100	89.9	> 100		> 100	> 100
CC(=O)/C(=C/N1CC(=O)NC1=S)C(=O)Nc1ccccc1C	> 100	> 100	> 100	> 100	> 100	> 100	> 100	> 100	> 100		> 100	> 100	> 100	> 100	> 100	> 100	> 100	> 100	> 100	
COc1ccccc1N1C(=O)CSC1c1cccc(Oc2ccccc2)c1 (stereo not given)	37.5	31.6	38.7	29.9	31.9	33.5	33.3	38.2		40	75.6	34.6	43.4	34.9	72.6	32.9	32	33.6	52.9	70.5
O=C1C=CC(=O)c2c(O)c(NCCN3CCOCC3)c(Cl)c(O)c21	> 10	3.33	3.12	2.35	3.23	3.64	3.3	7.51	5.33	7.15	> 10	2.98	> 10	3.01		3.96	4.12			
CCCCN(C)CC(C(C)=O)C(c1ccccc1)c1c(O)c2ccccc2oc1=O (stereo not given)	> 100	> 100		> 100	> 100	> 100	> 100	> 100			> 100	> 100	> 100	> 100	> 100	> 100		> 100	> 100	> 100
CC1CN=C(N(C(=O)Nc2ccc(Cl)cc2)c2cccc(Cl)c2)S1 (stereo not given)	> 100	> 100	> 100	33.7	83.9	> 100	> 100	> 100	> 100	> 100	> 100	> 100	> 100	40.1	> 100	> 100			> 100	> 100
O=C([O-])c1ccccc1Nc1ccccc1C(=O)[O-].[OH3+].[Zn+2]	> 66.4	> 82.9		62.3	> 100	> 100	> 100	> 100			> 100	40.7	65.8	> 75.3	49.4	> 63.1		42.7	28.9	> 63.7
O=C1C2CCCC2N1Cc1ccccc1 (stereo not given)	> 100	> 100	> 100	> 100	> 100	26.9	> 100	> 100	> 100		> 100		> 100	> 100	> 100	28.5	> 100	> 100	> 100	
COc1nc2c(c(=O)[nH]1)N=C(c1ccccc1)CC(c1ccccc1)N2 (stereo not given)	> 100	> 100	> 100	> 100	> 100	> 100	> 100	> 100		> 100	> 100	> 100	> 100	> 100		> 100	> 100	71.7	> 100	
CSc1nc2nccnc2c(=O)[nH]1	> 100			> 100	> 100	> 100	> 100	> 100				> 100	> 100	> 100	> 100	> 100		> 100	> 100	> 100
